Data on eight compounds can be found in paper PMC7694328, “Synthesis and Glycosidase Inhibition Properties of Calix[8]arene-Based Iminosugar Click Clusters” (Pharmaceuticals, 2020).

Several values for one entry are separate records, joined by “and”; a condition that tells them apart may be missing. Equal values may be shown once. Read-outs that look alike come from different tables or passages of the source.

Test [1] concerns the target T1, Jack Bean α-mannosidase (JBα-man) (Canavalia ensiformis, UniProt C0HJB3).
T1 construct: two LH heterodimers, each constituted by two distinct chains, L and H; purchased Sigma Aldrich
T1 sequence (C0HJB3 1-562 limits assumed): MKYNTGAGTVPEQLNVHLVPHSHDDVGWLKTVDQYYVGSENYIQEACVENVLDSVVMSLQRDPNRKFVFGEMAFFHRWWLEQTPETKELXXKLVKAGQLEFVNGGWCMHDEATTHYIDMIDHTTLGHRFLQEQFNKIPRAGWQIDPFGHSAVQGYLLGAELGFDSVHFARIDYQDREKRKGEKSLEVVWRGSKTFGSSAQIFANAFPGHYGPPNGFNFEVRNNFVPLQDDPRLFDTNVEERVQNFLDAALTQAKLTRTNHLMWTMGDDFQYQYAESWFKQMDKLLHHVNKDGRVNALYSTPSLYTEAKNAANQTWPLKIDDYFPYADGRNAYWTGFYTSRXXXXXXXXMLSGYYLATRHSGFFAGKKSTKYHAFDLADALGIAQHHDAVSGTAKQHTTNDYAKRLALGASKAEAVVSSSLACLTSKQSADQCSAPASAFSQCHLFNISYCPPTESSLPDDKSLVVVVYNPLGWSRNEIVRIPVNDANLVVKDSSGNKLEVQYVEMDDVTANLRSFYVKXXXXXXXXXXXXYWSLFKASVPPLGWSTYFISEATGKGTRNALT
T1 sequence (C0HJB3 563-981 limits assumed): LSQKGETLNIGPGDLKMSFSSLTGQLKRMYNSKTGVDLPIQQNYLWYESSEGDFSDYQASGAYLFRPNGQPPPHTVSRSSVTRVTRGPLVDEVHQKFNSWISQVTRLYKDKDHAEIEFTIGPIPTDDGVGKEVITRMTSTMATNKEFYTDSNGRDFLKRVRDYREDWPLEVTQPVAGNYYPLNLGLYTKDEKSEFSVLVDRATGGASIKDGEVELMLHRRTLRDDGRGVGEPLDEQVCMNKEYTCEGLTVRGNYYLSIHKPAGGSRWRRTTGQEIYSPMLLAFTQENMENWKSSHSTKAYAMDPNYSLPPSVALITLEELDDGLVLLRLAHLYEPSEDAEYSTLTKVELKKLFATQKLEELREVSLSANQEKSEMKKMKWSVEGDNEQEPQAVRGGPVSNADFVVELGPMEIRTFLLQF
To be noted: cited from earlier work; for rp/n: cyclopeptoid-based clusters.

Test [2] addresses T1, Jack Bean α-mannosidase (JBα-man). The experiment in a line: Inhibition assay against Jack Bean α-mannosidase (hydrolysis of p-nitrophenyl-α-D-mannopyranoside). It is filed as biochemical. As to the method: p-nitrophenyl-α-D-mannopyranoside and α-mannosidase (EC 3.2.1.24, from Jack Bean, Km = 2.0 mM pH 5.5) were purchased from Sigma Aldrich(St. Louis, MO, USA).
General procedure for Inhibition assay with basic quench: Inhibitory potencies were determined spectrophotometrically (Versamax 96-well plate spectrophotometer, Molecular Devices Corporation, Sunnyvale, CA, USA) measuring the residual hydrolytic activities of the mannosidase against p-nitrophenyl-α-D-mannopyranoside in the presence and absence of the inhibitor. All kinetics were performed at 25 °C and started by enzyme addition (0.015 U/mL) in a 100 µL assay medium (acetate buffer, 0.2 M, pH = 5) containing substrate (varying concentration from Km/8 to 2Km value) in presence or absence of various concentrations of inhibitor. After 40–50 min incubation, the reaction was quenched by addition of 1M Na2CO3 (100 µL). The absorbance of the resulting solution was determined at 405 nm. Ki values were determined in duplicate or triplicate, using the Dixon and Lineweaver–Burk graphical methods with Microsoft Excel 97-03, or using non-linear regression with GraphPad Prism 7 Software. As the inhibitors are only partially soluble in water, they were dissolved in DMSO for concentrated mother solutions and DMSO/buffer for diluted solutions with a final DMSO concentration under 4% in all wells. Previously, the stability of the enzymes in presence of various concentrations of DMSO was controlled and the enzyme activity was unaffected.
General procedure for inhibition assay measured continuously: The release of p-nitrophenol was measured continuously at 385 nm to determine initial velocities. […] Under these conditions, the p-nitrophenolate released led to optical densities linear with both reaction time and concentration of the enzyme. Ki values were determined in duplicate or quadruplate, using the Dixon graphical method. As the inhibitors are only partially soluble in water, they were dissolved in DMSO for concentrated mother solutions and DMSO/buffer for diluted solutions with a final DMSO concentration under 5% in all vials. […]

[3] abbreviates: calix[4]arene cluster and its monovalent reference, read-out: Ki.

Take `O=C1CN(Cc2cn(CCCCCCCCCN3C[C@H](O)[C@@H](O)[C@H](O)[C@H]3CO)nn2)C(=O)CN(Cc2cn(CCCCCCCCCN3C[C@H](O)[C@@H](O)[C@H](O)[C@H]3CO)nn2)C(=O)CN(Cc2cn(CCCCCCCCCN3C[C@H](O)[C@@H](O)[C@H](O)[C@H]3CO)nn2)C(=O)CN(Cc2cn(CCCCCCCCCN3C[C@H](O)[C@@H](O)[C@H](O)[C@H]3CO)nn2)C(=O)CN(Cc2cn(CCCCCCCCCN3C[C@H](O)[C@@H](O)[C@H](O)[C@H]3CO)nn2)C(=O)CN1Cc1cn(CCCCCCCCCN2C[C@H](O)[C@@H](O)[C@H](O)[C@H]2CO)nn1` [Compound 1a]: in test [1], the rp/n was 3 and ~ 3.

`O=C1CN(Cc2cn(CCCCCCCCCN3C[C@H](O)[C@@H](O)[C@H](O)[C@H]3CO)nn2)C(=O)CN(Cc2cn(CCCCCCCCCN3C[C@H](O)[C@@H](O)[C@H](O)[C@H]3CO)nn2)C(=O)CN(Cc2cn(CCCCCCCCCN3C[C@H](O)[C@@H](O)[C@H](O)[C@H]3CO)nn2)C(=O)CN(Cc2cn(CCCCCCCCCN3C[C@H](O)[C@@H](O)[C@H](O)[C@H]3CO)nn2)C(=O)CN(Cc2cn(CCCCCCCCCN3C[C@H](O)[C@@H](O)[C@H](O)[C@H]3CO)nn2)C(=O)CN(Cc2cn(CCCCCCCCCN3C[C@H](O)[C@@H](O)[C@H](O)[C@H]3CO)nn2)C(=O)CN(Cc2cn(CCCCCCCCCN3C[C@H](O)[C@@H](O)[C@H](O)[C@H]3CO)nn2)C(=O)CN1Cc1cn(CCCCCCCCCN2C[C@H](O)[C@@H](O)[C@H](O)[C@H]2CO)nn1` [Compound 1b]: in test [1], the rp/n was 3 and ~ 3.

`CC(C)(C)c1cc2c(OCc3cn(CCCN4C[C@H](O)[C@@H](O)[C@H](O)[C@H]4CO)nn3)c(c1)Cc1cc(C(C)(C)C)cc(c1OCc1cn(CCCN3C[C@H](O)[C@@H](O)[C@H](O)[C@H]3CO)nn1)Cc1cc(C(C)(C)C)cc(c1OCc1cn(CCCN3C[C@H](O)[C@@H](O)[C@H](O)[C@H]3CO)nn1)Cc1cc(C(C)(C)C)cc(c1OCc1cn(CCCN3C[C@H](O)[C@@H](O)[C@H](O)[C@H]3CO)nn1)C2` [Compound 2]: in test [1] (setting [3]), the Ki is 1.5 µM. Further, the “rp/n (affinity enhancement per iminosugar)” value in test [1] (calix[4]arene cluster) was 70 and ~ 70.

Consider `CCCc1cn(CCCCCCN2C[C@H](O)[C@@H](O)[C@H](O)[C@H]2CO)nn1` [Compound 3], for which the Ki in test [1] (monovalent reference, C6 chain, read-out: Ki) was 322 µM.

Take `CCCc1cn(CCCCCCCCCN2C[C@H](O)[C@@H](O)[C@H](O)[C@H]2CO)nn1` [Compound 4]: the inhibitory constant (Ki) in test [1] (monovalent reference, C9 chain, read-out: Ki) is 188 µM.

For `OCc1cn(CCCN2C[C@H](O)[C@@H](O)[C@H](O)[C@H]2CO)nn1` [Compound 5], in test [1] (setting [3]), the Ki was 400 µM.

In the case of `CC(C)(C)c1cc2c3c(c1)Cc1cc(C(C)(C)C)cc(c1OCc1cn(CCCCCCN4C[C@H](O)[C@@H](O)[C@H](O)[C@H]4CO)nn1)Cc1cc(C(C)(C)C)cc(c1OCc1cn(CCCCCCN4C[C@H](O)[C@@H](O)[C@H](O)[C@H]4CO)nn1)Cc1cc(C(C)(C)C)cc(c1OCc1cn(CCCCCCN4C[C@H](O)[C@@H](O)[C@H](O)[C@H]4CO)nn1)Cc1cc(C(C)(C)C)cc(c1OCc1ccc(cc1)CO3)Cc1cc(C(C)(C)C)cc(c1OCc1cn(CCCCCCN3C[C@H](O)[C@@H](O)[C@H](O)[C@H]3CO)nn1)Cc1cc(C(C)(C)C)cc(c1OCc1cn(CCCCCCN3C[C@H](O)[C@@H](O)[C@H](O)[C@H]3CO)nn1)Cc1cc(C(C)(C)C)cc(c1OCc1cn(CCCCCCN3C[C@H](O)[C@@H](O)[C@H](O)[C@H]3CO)nn1)C2` [Compound 7a], in test [2], the inhibition mode result is given as “competitive inhibitors”. The compound also registered a Ki in test [2] (means ± SD, triplicate) of 7.7 ± 0.7 µM. Besides, the “rp/n (relative inhibition potency per DNJ unit)” value in test [2] (rp/number of DNJ units) is listed as 7.

Regarding `OC[C@@H]1[C@@H](O)[C@H](O)[C@H](O)c2nccn21` [mannoimidazole], in test [1] (monovalent inhitope, read-out: Ki (monovalent)), the Ki is 0.11 µM.

One may read the Ki as a dissociation constant, usually derived from enzyme kinetics or from competition with a known ligand.
